The source of these data is US6620828B2, “Thiazole compounds and pharmaceutical compositions for inhibiting protein kinases and methods for their use” (Agouron Pharmaceuticals, Inc., priority 1999, dated 2003).

Structures can show the parent of a compound that is named as a salt.

Test [1] relates to human umbilical vein endothelial cells (HUVEC). In words: HUVEC proliferation assay. The test is classed as cell-based. Conditions: Homo sapiens, HUVEC, Table 3. The method, boiled down:
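Readout was MTT dye reduction (A595) after 72 h of stimulation with VEGF at 6 ng/ml final. Compound, in 0.1% DMSO final, was added 1 h before VEGF to HUVEC starved 24 h in 1% FBS. % inhibition was scaled between VEGF-alone and unstimulated wells; IC50 was fitted from triplicate dose curves.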

In test [2] the target is T1, unphosphorylated VEGF-R2Δ50 (FLVK) (Homo sapiens, UniProt P35968, DEL940-989/E990V).
T1 construct: VEGF-R2Δ50 contains residues 806-939 and 990-1171; made in house; host or cells: baculovirus/insect cells
T1 sequence (P35968 with tags, fused parts or gaps DEL940-989/E990V limits assumed): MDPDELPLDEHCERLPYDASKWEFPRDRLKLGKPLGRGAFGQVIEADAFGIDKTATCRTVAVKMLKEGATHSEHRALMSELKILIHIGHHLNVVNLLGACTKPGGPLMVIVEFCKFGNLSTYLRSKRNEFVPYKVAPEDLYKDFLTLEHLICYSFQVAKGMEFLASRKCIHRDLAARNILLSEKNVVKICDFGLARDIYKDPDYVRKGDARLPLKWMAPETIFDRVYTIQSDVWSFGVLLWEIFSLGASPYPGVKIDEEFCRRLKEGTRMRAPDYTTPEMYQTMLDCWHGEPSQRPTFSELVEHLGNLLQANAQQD
Description: VEGF-R2 coupled spectrophotometric assay, unphosphorylated enzyme (FLVK). Conditions: Table 3; for Ki: some entries 'Slow binder'; for inhibition at 0.05 µM: at 50 nM. It counts as biochemical. The text has this: VEGF-R2 Construct for Assay: This construct determines the ability of a test compound to inhibit tyrosine kinase activity. A construct (VEGF-R2Δ50) of the cytosolic domain of human vascular endothelial growth factor receptor 2 (VEGF-R2) lacking the 50 central residues of the 68 residues of the kinase insert domain was expressed in a baculovirus/insect cell system. Of the 1356 residues of full-length VEGF-R2, VEGF-R2Δ50 contains residues 806-939 and 990-1171, and also one point mutation (E990V) within the kinase insert domain relative to wild-type VEGF-R2. Autophosphorylation of the purified construct was performed by incubation of the enzyme at a concentration of 4 μM in the presence of 3 mM ATP and 40 mM MgCl2 in 100 mM Hepes, pH 7.5, containing 5% glycerol and 5 mM DTT, at 4° C. for 2 h. […] See Parast et al., Biochemistry, 37, 16788-16801 (1998).
The production of ADP from ATP that accompanies phosphoryl transfer was coupled to oxidation of NADH using phosphoenolpyruvate (PEP) and a system having pyruvate kinase (PK) and lactic dehydrogenase (LDH). The oxidation of NADH was monitored by following the decrease of absorbance at 340 nm (e340=6.22 cm^−1 mM^−1) using a Beckman DU 650 spectrophotometer. Assay conditions for phosphorylated VEGF-R2Δ50 (indicated as FLVK-P in the tables below) were the following: 1 mM PEP; 250 μM NADH; 50 units of LDH/mL; 20 units of PK/mL; 5 mM DTT; 5.1 mM poly(E4Y1); 1 mM ATP; and 25 mM MgCl2 in 200 mM Hepes, pH 7.5. Assay conditions for unphosphorylated VEGF-R2Δ50 (indicated as FLVK in the tables) were the following: 1 mM PEP; 250 μM NADH; 50 units of LDH/mL; 20 units of PK/mL; 5 mM DTT; 20 mM poly(E4Y1); 3 mM ATP; and 60 mM MgCl2 and 2 mM MnCl2 in 200 mM Hepes, pH 7.5. Assays were initiated with 5 to 40 nM of enzyme. Ki values were determined by measuring enzyme activity in the presence of varying concentrations of test compounds. The data were analyzed using Enzyme Kinetic and Kaleidagraph software.

Take `COc1cc(Nc2nc(N)c(-c3nc(-c4cccc(NC(=O)c5cccc(C#N)c5)c4)no3)s2)cc(OC)c1OC` [D(68)]: in test [1], the IC50 was more than 100 nM. The same compound came in with a Ki in test [2] of 0.69 nM.

Compound `COc1cc(Nc2nc(N)c(-c3nc(-c4cc(N)ccc4Cl)no3)s2)cc(OC)c1OC` [C(7), 5-[3-(5-Amino-2-chloro-phenyl)-[1,2,4]oxadiazol-5-yl]-N2-(3,4,5-trimethoxy-phenyl)-thiazole-2,4-diamine] yielded an IC50 in test [1] of 300 nM. Moreover, the affinity in test [2], expressed as Ki, was 17 nM.

`COc1cccc(C(=O)Nc2ccc(C)c(-c3noc(-c4sc(NC(C)C)nc4N)n3)c2)c1` [B(22), N-{3-[5-(4-Amino-2-isopropylamino-thiazol-5-yl)-[1,2,4]oxadiazol-3-yl]-4-methyl-phenyl}-3-methoxy-benzamide]: the IC50 in test [1] was more than 1000 nM. In addition, the inhibition at 0.05 µM in test [2] was determined as 54%.

Consider `C#CCCCC(=O)Nc1cccc(-c2noc(-c3sc(Nc4cc(OC)c(OC)c(OC)c4)nc3N)n2)c1` [D(62), Hex-5-ynoic acid (3-{5-[4-amino-2-(3,4,5-trimethoxy-phenylamino)-thiazol-5-yl]-[1,2,4]oxadiazol-3-yl}-phenyl)-amide], for which half-maximal inhibition in test [1] (IC50) required 500 nM. The compound also returned an inhibition at 0.05 µM in test [2] of 20%.

For `COc1cc(Nc2nc(N)c(-c3nc(-c4cc(N)ccc4C)no3)s2)cc(OC)c1OC` [C(6), 3-(3-amino-6-methyl-phenyl)-5-[2-[(3,4,5 trimethoxyphenyl)-amino]-4-amino-5-thiazolyl]-1,2,4-oxadiazole], half-maximal inhibition in test [1] (IC50) was put at 300 nM. In test [2], this compound displayed a Ki of 33 nM.

Turning to `COc1cc(Nc2nc(N)c(-c3nc(-c4cccc(NC(=O)c5ccc(CN6CCOCC6)cc5)c4)no3)s2)cc(OC)c1OC` [D(76)], the IC50 in test [1] is more than 1000 nM. In test [2], this compound registered a Ki of 2.7 nM.

Turning to `COc1cc(Nc2nc(N)c(-c3nc(-c4cccc(-c5nc(C)n[nH]5)c4)no3)s2)cc(OC)c1OC` [B(37)], the IC50 in test [1] was more than 1000 nM. Besides, 0.05 µM produced 36% inhibition in test [2].

As for `Cc1cccc(C(=O)Nc2cccc(-c3noc(-c4sc(NC(=O)Nc5ccccc5)nc4N)n3)c2)c1` [F(12), N-(3-{5-[4-Amino-2-(3-phenyl-ureido)-thiazol-5-yl]-[1,2,4]oxadiazol-3-yl}-phenyl)-3-methyl-benzamide], the IC50 in test [1] was more than 300 nM. Moreover, in test [2], the inhibition constant (Ki) was found to be 2.2 nM.

With `Cc1cccc(C(=O)Nc2cccc(-c3noc(-c4sc(NC(=O)NCc5ccccc5)nc4N)n3)c2)c1` [F(14), N-(3-{5-[4-Amino-2-(3-benzyl-ureido)-thiazol-5-yl]-[1,2,4]oxadiazol-3-yl}-phenyl)-3-methyl-benzamide], in test [1], it took 150 nM to reach half-maximal inhibition (IC50). Further, in test [2], the Ki was determined as 0.36 nM.

In test [1], `Nc1nc(Nc2cccc(-c3nn[nH]n3)c2)sc1-c1nc(-c2cccc(NC(=O)c3cccc(Cl)c3)c2)no1` [D(63), N-[3(5-{4-Amino-2-[3-(2H-tetrazol-5-yl)-phenylamino]-thiazol-5-yl]-[1,2,4]oxadiazol-3-yl)-phenyl]-3-chloro-benzamide] came in with an IC50 of more than 10000 nM. The same compound had an inhibition at 0.05 µM in test [2] of 51%.

In turn, `COc1cccc(C(=O)Nc2cc(-c3noc(-c4sc(Nc5cccnc5)nc4N)n3)c(F)cc2F)c1` [B(20), N-(5-{5-[4-Amino-2-(pyridin-3-ylamino)-thiazol-5-yl]-[1,2,4]oxadiazol-3-yl}-2,4-difluoro-phenyl)-3-methoxy-benzamide-TFA salt] had an FLVK % inhibition in test [2] (concentration not given) of 80%.

As to `COc1cccc(C(=O)Nc2cc(-c3noc(-c4sc(NC(=O)NCCO)nc4N)n3)c(F)cc2F)c1` [O(10), N-[5-(5-{4-Amino-2-[3-(2-hydroxy-ethyl)-ureido]-thiazol-5-yl}-[1,2,4]oxadiazol-3-yl)-2,4-difluoro-phenyl]-3-methoxy-benzamide], the IC50 in test [1] was 6.7 nM. Moreover, affinity in test [2] was put at a Ki of 94 nM.

In test [1], `COc1cccc(C(=O)Nc2cc(-c3noc(-c4sc(NC(=O)NCC(C)C)nc4N)n3)c(F)cc2F)c1` [O(7), N-(5-{5-[4-Amino-2-(3-isobutyl-ureido)-thiazol-5-yl]-[1,2,4]oxadiazol-3-yl}-2,4-difluoro-phenyl)-3-methoxy-benzamide] displayed an IC50 of 5.2 nM. In test [2], this compound displayed a Ki of 0.16 nM.

Take `COc1cc(F)c(-c2noc(-c3sc(Nc4cc(OC)c(OC)c(OC)c4)nc3N)n2)cc1N` [C(5), 3-[2-fluoro-4-methoxy-5-aminophenyl]-5-[2-[(3,4,5-trimethoxyphenyl)amino]-4-amino-5-thiazolyl]-1,2,4-oxadiazole]: in test [2], the inhibition at 0.05 µM stood at 15%.

In test [2], `COc1cccc(C(=O)Nc2cc(-c3noc(-c4sc(NC(=O)NCC(N)=O)nc4N)n3)c(F)cc2F)c1` [O(3), N-(5-{5-[4-Amino-2-(3-carbamoylmethyl-ureido)-thiazol-5-yl]-[1,2,4]oxadiazol-3-yl}-2,4-difluoro-phenyl)-3-methoxy-benzamide] returned a Ki of 0.57 nM.

In test [2], `COc1cc(Nc2nc(N)c(-c3nc(-c4cccc(NC(=O)c5ccc(CN6CCN(C)CC6)cc5)c4)no3)s2)cc(OC)c1OC` [D(77)] gave a Ki of 2.6 nM.

On to `C/C=C(/C)C(=O)Nc1ccc(C)c(-c2noc(-c3sc(Nc4ccc(N5CCN(C)CC5)nc4)nc3N)n2)c1` [B(31)], for which the Ki in test [2] was found to be 5.1 nM.

In test [2], `COc1cccc(C(=O)Nc2cc(-c3csc(-c4sc(NC(=O)NCCc5ccncc5)nc4N)n3)c(F)cc2F)c1` [O(30), N-(5-{4′-Amino-2′-[3-(2-pyridin-4-yl-ethyl)-ureido]-[2,5′]bithiazolyl-4-yl}-2,4-difluoro-phenyl)-3-methoxy-benzamide] registered an inhibition at 0.05 µM of 39%.

In turn, `Cc1ccc(NC(=O)OC(C)(C)C)cc1-c1noc(-c2sc(Nc3ccccc3)nc2N)n1` [B(23)] came in with a Ki in test [2] of 1.7 nM.

`COc1cccc(C(=O)Nc2cc(-c3csc(-c4sc(NC(=O)NCCOCCO)nc4N)n3)c(F)cc2F)c1` [O(28), N-[5-(4′-Amino-2′-{3-[2-(2-hydroxy-ethoxy)-ethyl]-ureido}-[2,5′]bithiazolyl-4-yl)-2,4-difluoro-phenyl]-3-methoxy-benzamide]: in test [2], the Ki was determined as 0.29 nM. Compared with the last compound, the Ki is about 5.9-fold lower.

As to `COc1cccc(C(=O)Nc2cc(-c3noc(-c4sc(Nc5ccc(N6CCN(C)CC6)nc5)nc4N)n3)c(C)cc2Cl)c1` [B(28)], the affinity in test [2] corresponds to a Ki of 3 nM.

With `COc1cccc(C(=O)Nc2cc(-c3csc(-c4sc(NC(=O)NC[C@@H]5CCCO5)nc4N)n3)c(F)cc2F)c1` [O(23), N-[5-(4′-Amino-2′-{3-[(S)-1-(tetrahydro-furan-2-yl)methyl]-ureido}-[2,5′]bithiazolyl-4-yl)-2,4-difluoro-phenyl]-3-methoxy-benzamide], at 0.05 µM the inhibition in test [2] was 29%.

Take `COc1cccc(C(=O)Nc2cc(-c3csc(-c4sc(NC(=O)NCCN5CCCC5)nc4N)n3)c(F)cc2F)c1` [O(27), N-(5-{4′-Amino-2′-[3-(2-pyrrolidin-1-yl-ethyl)-ureido]-[2,5′]bithiazolyl-4-yl}-2,4-difluoro-phenyl)-3-methoxy-benzamide]: the inhibitory constant (Ki) in test [2] came out at 1.7 nM. That is a single-digit nanomolar value.

For `COc1cccc(C(=O)Nc2cc(-c3csc(-c4sc(NC(=O)NCc5ccccn5)nc4N)n3)c(F)cc2F)c1` [O(16), N-{5-[4′-Amino-2′-(3-pyridin-2-ylmethyl-ureido)-[2,5′]bithiazolyl-4-yl]-2,4-difluoro-phenyl}-3-methoxy-benzamide], the inhibition at 0.05 µM in test [2] was determined as 11%.

As for `Cc1cccc(C(=O)Nc2cccc(-c3noc(-c4sc(NS(C)(=O)=O)nc4N)n3)c2)c1` [F(15), N-{3-[5-(4-Amino-2-methanesulfonylamino-thiazol-5-yl)-[1,2,4]oxadiazol-3-yl]-phenyl}-3-methyl-benzamide], the inhibition at 0.05 µM in test [2] was determined as 5%.

In the case of `Cc1ccc(NC(=O)C(O)CC(C)C)cc1-c1noc(-c2sc(Nc3ccc(N4CCN(C)CC4)nc3)nc2N)n1` (stereo not shown) [B(29)], the Ki in test [2] stood at 0.9 nM.

As for `CCn1nc(C)cc1C(=O)Nc1ccc(C)c(-c2noc(-c3sc(Nc4cccc(CO)c4)nc3N)n2)c1` [B(8)], in test [2], the affinity corresponds to a Ki of 0.1 nM.

Regarding `CNC(=O)Nc1nc(N)c(-c2nc(-c3cccc(NC(=O)c4cccc(OC)c4)c3)c(C)s2)s1` [O(31), N-{3-[4′-Amino-5-methyl-2′-(3-methyl-ureido)-[2,5′]bithiazolyl-4-yl]-phenyl}-3-methoxy-benzamide], in test [2], the affinity, expressed as Ki, was 0.23 nM. Compared with the last compound, the Ki is about 2.3-fold higher.

The term IC50 denotes the midpoint of a concentration-inhibition curve. Low values mean inhibition by little substance, high ones a need for much substance. As usually defined, the Ki is a measure of affinity in units of concentration, obtained from inhibition or displacement. A higher Ki goes with weaker binding. As usually defined, the inhibition is how much of the control response was suppressed. The low end stands for a response near the control, the high end for a response far below the control.
